Measured values: US7704995B2 (Exelixis, Inc., priority 2003, dated 2010)
pIC50: −log10 of the molar value.

molecular target: T1, Chk1 (Homo sapiens, UniProt O14757); assay: Chk1 kinase assay: incorporation of γ-33P ATP into immobilized myelin basic protein; type: biochemical; details: Table 11, Chk1 only; class symbols A-D; read-out: Chk1 IC50
T1 construct: purchased Upstate Biotechnology
T1 sequence (O14757 1-476): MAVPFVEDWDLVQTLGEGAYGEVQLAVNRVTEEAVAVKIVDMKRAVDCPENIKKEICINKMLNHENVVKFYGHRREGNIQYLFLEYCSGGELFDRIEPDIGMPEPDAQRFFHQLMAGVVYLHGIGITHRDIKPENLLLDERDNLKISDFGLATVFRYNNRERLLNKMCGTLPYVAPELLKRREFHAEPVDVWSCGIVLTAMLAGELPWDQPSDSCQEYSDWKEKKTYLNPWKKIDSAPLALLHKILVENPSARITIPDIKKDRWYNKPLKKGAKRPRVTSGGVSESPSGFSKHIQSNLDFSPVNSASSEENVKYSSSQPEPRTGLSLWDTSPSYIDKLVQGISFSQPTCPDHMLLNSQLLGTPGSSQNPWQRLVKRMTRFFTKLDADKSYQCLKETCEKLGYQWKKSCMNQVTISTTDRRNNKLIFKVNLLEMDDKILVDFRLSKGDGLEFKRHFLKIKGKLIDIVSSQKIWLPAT
Method in brief: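 MBP coated on plates (20 μg/ml) was phosphorylated by Chk1 (10 nM) or Chk2 (20 nM) with γ-33P ATP plus 10 μM (Chk1) or 30 μM (Chk2) unlabeled ATP, 1 h at room temperature, 1% DMSO. Bound radioactivity was counted by scintillation after washing; IC50 or Ki derived from fitted rate data.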

Row | pIC50 | SMILES
1 | > 7.30 | Nc1ncc(-c2cccc(CNS(=O)(=O)c3ccc4c(c3)CCO4)c2)nc1C(=O)N[C@H]1CCCNC1 [Example 905, 3-amino-6-(3-{[(2,3-dihydro-1-benzofuran-5-ylsulfonyl)amino]methyl}phenyl)-N-[(3S)-piperidin-3-yl]pyrazine-2-carboxamide]
2 | > 7.30 | Nc1ncc(-c2cccc(C(=O)NCc3ccc(-c4cnns4)cc3)c2)nc1C(=O)N[C@H]1CCCNC1 [Example 845, 3-amino-N-[(3S)-piperidin-3-yl]-6-{3-[({[4-(1,2,3-thiadiazol-5-yl)phenyl]methyl}amino)carbonyl]phenyl}pyrazine-2-carboxamide]
3 | > 7.30 | Nc1ncc(-c2cccc(CNS(=O)(=O)c3ccc4c(c3)OCCO4)c2)nc1C(=O)N[C@H]1CCCNC1 [Example 937, 3-amino-6-(3-{[(2,3-dihydro-1,4-benzodioxin-6-ylsulfonyl)amino]methyl}phenyl)-N-[(3S)-piperidin-3-yl]pyrazine-2-carboxamide]
4 | > 7.30 | Nc1ncc(-c2cccc(C(=O)NCc3ccc(Br)cc3F)c2)nc1C(=O)N[C@H]1CCCNC1 [Example 871, 3-amino-6-[3-({[(4-bromo-2-fluorophenyl)methyl]amino}carbonyl)phenyl]-N-[(3S)-piperidin-3-yl]pyrazine-2-carboxamide]
5 | > 7.30 | Nc1ncc(-c2cccc(C(=O)NCc3c(F)ccc(F)c3Cl)c2)nc1C(=O)N[C@H]1CCCNC1 [Example 1014, 3-amino-6-[3-({[(2-chloro-3,6-difluorophenyl)methyl]amino}carbonyl)phenyl]-N-[(3S)-piperidin-3-yl]pyrazine-2-carboxamide]
6 | > 7.30 | Nc1ncc(-c2cccc(CN[C@H]3CCc4ccccc43)c2)nc1C(=O)NC1CCCCNC1 (stereo partly drawn) [Example 947, 3-amino-N-azepan-3-yl-6-(3-{[(1S)-2,3-dihydro-1H-inden-1-ylamino]methyl}phenyl)pyrazine-2-carboxamide]
7 | 6.00 to 7.30 | CN1CC[C@H](NC(=O)c2nc(-c3cccc(C(=O)N[C@@H]4c5ccccc5C[C@@H]4O)c3)cnc2N)C1 [Example 805, 3-amino-6-[3-({[(1R,2S)-2-hydroxy-2,3-dihydro-1H-inden-1-yl]amino}carbonyl)phenyl]-N-[(3S)-1-methylpyrrolidin-3-yl]pyrazine-2-carboxamide]

same assay, conditions: Table 11; Chk1 only; read-out: Chk1 IC50

Row | pIC50 | SMILES
8 | 6.00 to 7.30 | Cn1nc(-c2nc(-c3cccc(C(=O)N[C@H]4CCc5ccccc54)c3)cnc2N)nc1C1CCCNC1 (stereo partly drawn) [Example 735, 3-(5-amino-6-(1-methyl-5-piperidin-3-yl-1H-1,2,4-triazol-3-yl)pyrazin-2-yl]-N-[(1S)-2,3-dihydro-1H-inden-1-yl]benzamide]
9 | 5.00 to 6.00 | CC(C)(C)OC(=O)N1CC[C@H](NC(=O)c2nc(-c3cccc(C(=O)NCc4cccnc4)c3)cnc2N)C1 [Example 758, 1,1-dimethylethyl (3S)-3-({[3-amino-6-(3-{[(pyridin-3-ylmethyl)amino]carbonyl}phenyl)pyrazin-2-yl]carbonyl}amino)pyrrolidine-1-carboxylate]
10 | 5.00 to 6.00 | Nc1ncc(-c2cccc(C(=O)NCc3ccccc3)c2)nc1C(=O)NCCCNC(=O)c1ccncc1 [Example 650, 3-amino-6-(3-{[(phenylmethyl)amino]carbonyl}phenyl)-N-{3-[(pyridin-4-ylcarbonyl)amino]propyl}pyrazine-2-carboxamide]
11 | ≤ 5.00 | Nc1ncc(-c2cccc(C(=O)NCc3ccccc3)c2)nc1/C=N/Nc1ccccn1 [Example 678, 3-{5-amino-6-[(E)-(pyridin-2-ylhydrazono)methyl]pyrazin-2-yl}-N-(phenylmethyl)benzamide]
12 | 6.00 to 7.30 | Nc1ncc(-c2cccc(C(=O)N[C@H]3CCc4ccccc43)c2)nc1C(=O)NCCc1c[nH]cn1 [Example 767, 3-amino-6-(3-{[(1S)-2,3-dihydro-1H-inden-1-ylamino]carbonyl}phenyl)-N-[2-(1H-imidazol-4-yl)ethyl]pyrazine-2-carboxamide]

Second part, the molecule before the results:

Row | SMILES | pIC50
13 | CNC(=O)c1nc(-c2cccc(CNC3CCc4c(F)ccc(F)c43)c2)cnc1N (stereo not shown) [Example 469, 3-amino-6-(3-{[(4,7-difluoro-2,3-dihydro-1H-inden-1-yl)amino]methyl}phenyl)-N-methylpyrazine-2-carboxamide] | 6.00 to 7.30
14 | CC(=NNc1ccc([N+](=O)[O-])cc1)c1nc(-c2cccc(C(=O)NCc3ccccc3)c2)cnc1N [Example 635, 3-(5-Amino-6-{1-[(4-nitro-phenyl)-hydrazono]-ethyl}-pyrazin-2-yl)-N-benzyl-benzamide] | ≤ 5.00
15 | CC(C)(C)OC(=O)NC1CCN(C(=O)c2nc(-c3cccc(C(=O)NCc4ccccc4)c3)cnc2N)CC1 [Example 617, 1,1-dimethylethyl (1-{[3-amino-6-(3-{[(phenylmethyl)amino]carbonyl}phenyl)pyrazin-2-yl]carbonyl}piperidin-4-yl)carbamate] | ≤ 5.00
16 | CNC(=O)c1nc(-c2cccc(CNC3CCc4cc(OCC#N)ccc43)c2)cnc1N (stereo not shown) [Example 508, 3-amino-6-{3-[({5-[(cyanomethyl)oxy]-2,3-dihydro-1H-inden-1-yl}amino)methyl]phenyl}-N-methylpyrazine-2-carboxamide] | 6.00 to 7.30
17 | CNC(=O)c1nc(-c2cccc(CNC3CCc4c(-c5cccs5)cccc43)c2)cnc1N (stereo not shown) [Example 494, 3-amino-N-methyl-6-[3-({[4-(2-thienyl)-2,3-dihydro-1H-inden-1-yl]amino}methyl)phenyl]pyrazine-2-carboxamide] | > 7.30

same assay, conditions: read-out: Chk1 IC50

Row | pIC50 | SMILES
18 | 6.00 to 7.30 | CNC(=O)c1nc(-c2cccc(C(=O)NCc3cc(OC)c(OC)c(OC)c3)c2)cnc1N [Example 162, 3-amino-N-methyl-6-{3-[({[3,4,5-tris(methyloxy)phenyl]methyl}amino)carbonyl]phenyl}pyrazine-2-carboxamide]
19 | 5.00 to 6.00 | CNC(=O)c1nc(-c2ccc(NC(C)=O)cc2)cnc1N [Example 63, 6-[4-(acetylamino)phenyl]-3-amino-N-methylpyrazine-2-carboxamide]
20 | 6.00 to 7.30 | CNC(=O)c1nc(-c2cncc(C(=O)NCc3ccccc3-c3ccccc3)c2)cnc1N [Example 401, 3-amino-6-(5-{[(biphenyl-2-ylmethyl)amino]carbonyl}pyridin-3-yl)-N-methylpyrazine-2-carboxamide]
21 | 6.00 to 7.30 | CNC(=O)c1nc(-c2cccc(C(=O)NCc3cc(C)cc(C)c3)c2)cnc1N [Example 212, 3-amino-6-[3-({[(3,5-dimethylphenyl)methyl]amino}carbonyl)phenyl]-N-methylpyrazine-2-carboxamide]
22 | ≤ 5.00 | CNC(=O)c1nc(-c2cccc(C(=O)NCC3CCN(Cc4ccccc4)CC3)c2)cnc1N [Example 200, 3-amino-N-methyl-6-{3-[({[1-(phenylmethyl)piperidin-4-yl]methyl}amino)carbonyl]phenyl}pyrazine-2-carboxamide]
23 | 6.00 to 7.30 | CNC(=O)c1nc(-c2cccc(C(=O)NCC3CCCCC3)c2)cnc1N [Example 126, 3-amino-6-(3-{[(cyclohexylmethyl)amino]carbonyl}phenyl)-N-methylpyrazine-2-carboxamide]
24 | 6.00 to 7.30 | CNC(=O)c1nc(-c2cccc(C(=O)NCc3cc(F)cc4c3OCOC4)c2)cnc1N [Example 208, 3-amino-6-[3-({[(6-fluoro-4H-1,3-benzodioxin-8-yl)methyl]amino}carbonyl)phenyl]-N-methylpyrazine-2-carboxamide]
25 | > 7.30 | CNC(=O)c1nc(-c2cccc(C(=O)NCc3ccc(-c4csnn4)cc3)c2)cnc1N [Example 376, 3-amino-N-methyl-6-{3-[({[4-(1,2,3-thiadiazol-4-yl)phenyl]methyl}amino)carbonyl]phenyl}pyrazine-2-carboxamide]
26 | 5.00 to 6.00 | CNC(=O)c1nc(-c2cccc(S(=O)(=O)NCc3ccccc3)c2)cnc1N [Example 265, 3-amino-N-methyl-6-(3-{[(phenylmethyl)amino]sulfonyl}phenyl)pyrazine-2-carboxamide]
27 | 6.00 to 7.30 | CNC(=O)c1nc(-c2cccc(CNC(=O)c3ccc(C(C)(C)C)cc3)c2)cnc1N [Example 378, 3-amino-6-{3-[({[4-(1,1-dimethylethyl)phenyl]carbonyl}amino)methyl]phenyl}-N-methylpyrazine-2-carboxamide]
28 | 6.00 to 7.30 | CNC(=O)c1nc(-c2cccc(C(=O)NCc3ccccc3OC)c2)cnc1N [Example 325, 3-amino-N-methyl-6-{3-[({[2-(methyloxy)phenyl]methyl}amino)carbonyl]phenyl}pyrazine-2-carboxamide]
29 | 6.00 to 7.30 | CNC(=O)c1nc(-c2cccc(C(=O)NCc3ccc(Br)cc3)c2)cnc1N [Example 304, 3-amino-6-[3-({[(4-bromophenyl)methyl]amino}carbonyl)phenyl]-N-methylpyrazine-2-carboxamide]
30 | 6.00 to 7.30 | CNC(=O)c1nc(-c2cccc(C(=O)NCc3ccccc3O)c2)cnc1N [Example 327, 3-amino-6-[3-({[(2-hydroxyphenyl)methyl]amino}carbonyl)phenyl]-N-methylpyrazine-2-carboxamide]
31 | 6.00 to 7.30 | CNC(=O)c1nc(-c2cccc(C(=O)N[C@@H]3CCN(Cc4ccccc4)C3)c2)cnc1NCc1ccccc1 [Example 363, N-methyl-3-[(phenylmethyl)amino]-6-[3-({[(3R)-1-(phenylmethyl)pyrrolidin-3-yl]amino}carbonyl)phenyl]pyrazine-2-carboxamide]
